These results are taken from PMC8037569, “Neuroprotective Effect of Aurantio-Obtusin, a Putative Vasopressin V1A Receptor Antagonist, on Transient Forebrain Ischemia Mice Model” (International Journal of Molecular Sciences, 2021).

For orientation: inhibition means the change of the read-out against control, counted positive when it falls.

Bounds are passed on as bounds.

Data set [1] has as its target T1, h5-HT1AR (Homo sapiens, UniProt P08908).
T1 construct: host or cells: Ba/F3 (murine pro-B)
T1 sequence (P08908 1-422): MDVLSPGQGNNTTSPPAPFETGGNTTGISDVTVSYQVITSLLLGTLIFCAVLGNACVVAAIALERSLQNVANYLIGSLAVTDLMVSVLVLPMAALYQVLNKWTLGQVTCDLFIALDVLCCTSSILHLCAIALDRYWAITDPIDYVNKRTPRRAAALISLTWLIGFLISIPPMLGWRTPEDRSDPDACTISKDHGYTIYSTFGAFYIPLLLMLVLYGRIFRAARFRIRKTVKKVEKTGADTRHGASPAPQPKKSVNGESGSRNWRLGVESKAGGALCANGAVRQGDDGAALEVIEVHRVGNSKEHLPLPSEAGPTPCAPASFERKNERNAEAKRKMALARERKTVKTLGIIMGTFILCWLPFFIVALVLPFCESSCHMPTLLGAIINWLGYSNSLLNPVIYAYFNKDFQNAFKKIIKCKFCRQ
As to the kind of experiment: GPCR functional assay: intracellular Ca2+ mobilization in Ba/F3 cells. The format is cell-based.

Data set [2] concerns the target T2, hD3 receptor (Homo sapiens, UniProt P35462).
T2 construct: host or cells: CHO
Put plainly: GPCR functional assay: cAMP modulation by HTRF in transfected CHO cells. It is filed as cell-based. The following applies: 100 µM test compound.

The subject of data set [3] is rat. The arrangement: method as in PMID 31547563. The note with it: cited from earlier work.

T2 sequence (P35462 whole entry): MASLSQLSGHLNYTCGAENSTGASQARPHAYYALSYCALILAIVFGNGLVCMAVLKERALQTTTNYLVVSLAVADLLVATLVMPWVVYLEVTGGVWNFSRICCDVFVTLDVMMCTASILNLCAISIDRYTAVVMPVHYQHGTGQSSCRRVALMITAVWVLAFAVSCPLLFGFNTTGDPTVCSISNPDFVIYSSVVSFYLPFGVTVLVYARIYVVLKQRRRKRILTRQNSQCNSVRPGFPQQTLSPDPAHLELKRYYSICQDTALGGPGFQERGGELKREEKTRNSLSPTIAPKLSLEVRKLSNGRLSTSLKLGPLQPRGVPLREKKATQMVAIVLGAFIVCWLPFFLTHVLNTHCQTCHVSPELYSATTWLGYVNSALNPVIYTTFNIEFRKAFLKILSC

Consider `COc1c(O)cc2c(c1O)C(=O)c1c(cc(C)c(O)c1OC)C2=O` [Aurantio-obtusin, 1,3,7-trihydroxy-2,8-dimethoxy-6-methylanthracene-9,10-dione], for which, in data set [1] (100 µM test compound, control response to serotonin (2.5 μM)), the “% Stimulation (agonist effect) of control agonist response, 5-HT1A (h)” value is reported as −6.10 ± 0.00%. Besides, the inhibition at 100 µM was 10.1% in data set [1] (BaF3, read-out: % Inhibition (antagonist effect) of control agonist response, 5-HT1A (h) (converted)) and -2.3% in data set [2] (CHO, agonist response of 10 nM dopamine, read-out: % Inhibition (antagonist effect) of control agonist response, D3 (h) (converted)). Besides, in data set [2] (control response to 300 nM dopamine), the “% Stimulation (agonist effect) of control agonist response, D3 (h)” value is 33.00 ± 1.84%. For the same compound, the Dose causing hepatoxicity in data set [3] was greater than 40 mg/kg.
